Results from patent US12590123B2, “Compounds and methods for treating cancer, viral infections, and allergic conditions” (Washington University, priority 2019, dated 2026).
pIC50: −log10 of the molar value.

target: T1, matriptase (Homo sapiens, UniProt Q9Y5Y6); test: Fluorescent kinetic enzyme assay of matriptase activity (Boc-QAR-AMC); type: biochemical; conditions: Table 2; read-out: Matriptase (IC50 nM)
T1 construct: purchased R&D Systems 3946-SE-010
T1 sequence (Q9Y5Y6 615-855 limits assumed): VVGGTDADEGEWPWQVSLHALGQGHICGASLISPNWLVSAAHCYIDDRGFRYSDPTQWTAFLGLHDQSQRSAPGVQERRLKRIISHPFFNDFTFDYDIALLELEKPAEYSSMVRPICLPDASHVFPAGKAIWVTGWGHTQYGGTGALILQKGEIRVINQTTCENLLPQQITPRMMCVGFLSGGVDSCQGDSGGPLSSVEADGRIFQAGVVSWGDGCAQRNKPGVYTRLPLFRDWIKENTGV

Row | IC50 [nM] | SMILES
1 | 72.6 | CC(=O)N[C@H]1Cc2ccc(cc2)OC/C=C\CNC(=O)C[C@@H](C(=O)N[C@@H](CCCNC(=N)N)C(=O)c2nc3ccccc3s2)NC(=O)[C@H](CC(C)C)NC1=O [VD4054, (10S,13S,16S,Z)-16-acetamido-N—((S)-1-(benzo[d]thiazol-2-yl)-5-guanidino-1-oxopentan-2-yl)-13-isobutyl-8,12,15-trioxo-2-oxa-7,11,14-triaza-1(1,4)-benzenacycloheptadecaphan-4-ene-10-carboxamide]

target: T2, activated hepsin (Homo sapiens, UniProt P05981); test: Fluorescent kinetic enzyme assay of hepsin activity (Boc-QAR-AMC); type: biochemical; conditions: Table 2; read-out: Hepsin (IC50 nM)
T2 construct: purchased R&D Systems 4776-SE-010
T2 sequence (P05981 163-417 limits assumed): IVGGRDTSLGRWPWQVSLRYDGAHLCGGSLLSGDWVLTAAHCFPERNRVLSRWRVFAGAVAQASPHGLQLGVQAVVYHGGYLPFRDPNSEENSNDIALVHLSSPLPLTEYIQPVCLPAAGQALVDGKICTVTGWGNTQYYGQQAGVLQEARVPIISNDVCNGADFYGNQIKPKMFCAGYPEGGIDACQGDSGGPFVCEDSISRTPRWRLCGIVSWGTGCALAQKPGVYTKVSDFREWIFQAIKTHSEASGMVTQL
T2 sequence (P05981 1-162 partner limits assumed): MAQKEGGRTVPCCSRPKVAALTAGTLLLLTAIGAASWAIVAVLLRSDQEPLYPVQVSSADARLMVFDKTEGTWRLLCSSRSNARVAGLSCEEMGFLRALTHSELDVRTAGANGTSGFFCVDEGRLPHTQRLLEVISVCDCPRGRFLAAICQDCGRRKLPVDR

Row | IC50 [nM] | SMILES
2 | 0.643 | CC(=O)N[C@H]1Cc2ccc(cc2)OC/C=C\CNC(=O)C[C@@H](C(=O)N[C@@H](CCCNC(=N)N)C(=O)c2nc3ccccc3s2)NC(=O)[C@H](CC(C)C)NC1=O [VD4054, (10S,13S,16S,Z)-16-acetamido-N—((S)-1-(benzo[d]thiazol-2-yl)-5-guanidino-1-oxopentan-2-yl)-13-isobutyl-8,12,15-trioxo-2-oxa-7,11,14-triaza-1(1,4)-benzenacycloheptadecaphan-4-ene-10-carboxamide]

same assay, conditions: Table 3; average of three experiments; read-out: Hepsin IC50

Row | SMILES | pIC50
3 | CC(C)C[C@H](NC(=O)OC1CCN(S(=O)(=O)c2ccccc2)CC1)C(=O)N[C@@H](CCCNC(=N)N)C(=O)c1nc2ccccc2s1 [Compound 8f, 1-(phenylsulfonyl)piperidin-4-yl ((S)-1-(((S)-1-(benzo[d]thiazol-2-yl)-5-guanidino-1-oxopentan-2-yl)amino)-4-methyl-1-oxopentan-2-yl)carbamate] | 7.70
4 | CC(C)C[C@H](NC(=O)OC1CCN(S(=O)(=O)c2ccc(Cl)cc2)CC1)C(=O)N[C@@H](CCCNC(=N)N)C(=O)c1nc2ccccc2s1 [Compound 8i, 1-((4-chlorophenyl)sulfonyl)piperidin-4-yl ((S)-1-(((S)-1-(benzo[d]thiazol-2-yl)-5-guanidino-1-oxopentan-2-yl)amino)-4-methyl-1-oxopentan-2-yl)carbamate] | 7.22
5 | CC(C)C[C@H](NC(=O)OC1CCN(S(=O)(=O)c2ccc([N+](=O)[O-])cc2[N+](=O)[O-])CC1)C(=O)N[C@@H](CCCNC(=N)N)C(=O)c1nc2ccccc2s1 [Compound 8k, 1-((2,4-dinitrophenyl)sulfonyl)piperidin-4-yl ((S)-1-(((S)-1-(benzo[d]thiazol-2-yl)-5-guanidino-1-oxopentan-2-yl)amino)-4-methyl-1-oxopentan-2-yl)carbamate] | 6.96
6 | CC(=O)N1CCC(OC(=O)N[C@@H](CC(C)C)C(=O)N[C@@H](CCCNC(=N)N)C(=O)c2nc3ccccc3s2)CC1 [Compound 8e, 1-acetylpiperidin-4-yl ((S)-1-(((S)-1-(benzo[d]thiazol-2-yl)-5-guanidino-1-oxopentan-2-yl)amino)-4-methyl-1-oxopentan-2-yl)carbamate] | 7.70
7 | CCS(=O)(=O)N1CCC(OC(=O)N[C@@H](CC(C)C)C(=O)N[C@@H](CCCNC(=N)N)C(=O)c2nc3ccccc3s2)CC1 [Compound 8h, 1-(ethylsulfonyl)piperidin-4-yl ((S)-1-(((S)-1-(benzo[d]thiazol-2-yl)-5-guanidino-1-oxopentan-2-yl)amino)-4-methyl-1-oxopentan-2-yl)carbamate] | 8.00
8 | CC(C)C[C@H](NC(=O)OC1CCN(S(=O)(=O)c2ccccc2F)CC1)C(=O)N[C@@H](CCCNC(=N)N)C(=O)c1nc2ccccc2s1 [Compound 8g, 1-((2-fluorophenyl)sulfonyl)piperidin-4-yl ((S)-1-(((S)-1-(benzo[d]thiazol-2-yl)-5-guanidino-1-oxopentan-2-yl)amino)-4-methyl-1-oxopentan-2-yl)carbamate] | 7.15

Second part, the compound after the results:

Row | pIC50 | SMILES
9 | 7.15 | CC(C)C[C@H](NC(=O)OC1CCN(S(=O)(=O)c2cccc(F)c2)CC1)C(=O)N[C@@H](CCCNC(=N)N)C(=O)c1nc2ccccc2s1 [Compound 8j, 1-((3-fluorophenyl)sulfonyl)piperidin-4-yl ((S)-1-(((S)-1-(benzo[d]thiazol-2-yl)-5-guanidino-1-oxopentan-2-yl)amino)-4-methyl-1-oxopentan-2-yl)carbamate]
10 | 6.96 | Cc1cc(C)c(S(=O)(=O)N2CCC(OC(=O)N[C@@H](CC(C)C)C(=O)N[C@@H](CCCNC(=N)N)C(=O)c3nc4ccccc4s3)CC2)c(C)c1 [Compound 8m, 1-(mesitylsulfonyl)piperidin-4-yl ((S)-1-(((S)-1-(benzo[d]thiazol-2-yl)-5-guanidino-1-oxopentan-2-yl)amino)-4-methyl-1-oxopentan-2-yl)carbamate]
11 | 7.22 | COc1ccc(Cl)cc1S(=O)(=O)N1CCC(OC(=O)N[C@@H](CC(C)C)C(=O)N[C@@H](CCCNC(=N)N)C(=O)c2nc3ccccc3s2)CC1 [Compound 8l, 1-((5-chloro-2-methoxyphenyl)sulfonyl)piperidin-4-yl ((S)-1-(((S)-1-(benzo[d]thiazol-2-yl)-5-guanidino-1-oxopentan-2-yl)amino)-4-methyl-1-oxopentan-2-yl)carbamate]
